According to article PMC11423184 (Advanced Science, 2024):

Target: T1, SWELL1 channel (VRAC; SWELL1 = LRRC8A) (Mus musculus, UniProt Q80WG5)
T1 construct: endogenous VRAC in mouse primary astrocytes and hippocampal CA1 neurons, full length; neuronal current absent in NEX-cKO
T1 sequence (Q80WG5 1-810): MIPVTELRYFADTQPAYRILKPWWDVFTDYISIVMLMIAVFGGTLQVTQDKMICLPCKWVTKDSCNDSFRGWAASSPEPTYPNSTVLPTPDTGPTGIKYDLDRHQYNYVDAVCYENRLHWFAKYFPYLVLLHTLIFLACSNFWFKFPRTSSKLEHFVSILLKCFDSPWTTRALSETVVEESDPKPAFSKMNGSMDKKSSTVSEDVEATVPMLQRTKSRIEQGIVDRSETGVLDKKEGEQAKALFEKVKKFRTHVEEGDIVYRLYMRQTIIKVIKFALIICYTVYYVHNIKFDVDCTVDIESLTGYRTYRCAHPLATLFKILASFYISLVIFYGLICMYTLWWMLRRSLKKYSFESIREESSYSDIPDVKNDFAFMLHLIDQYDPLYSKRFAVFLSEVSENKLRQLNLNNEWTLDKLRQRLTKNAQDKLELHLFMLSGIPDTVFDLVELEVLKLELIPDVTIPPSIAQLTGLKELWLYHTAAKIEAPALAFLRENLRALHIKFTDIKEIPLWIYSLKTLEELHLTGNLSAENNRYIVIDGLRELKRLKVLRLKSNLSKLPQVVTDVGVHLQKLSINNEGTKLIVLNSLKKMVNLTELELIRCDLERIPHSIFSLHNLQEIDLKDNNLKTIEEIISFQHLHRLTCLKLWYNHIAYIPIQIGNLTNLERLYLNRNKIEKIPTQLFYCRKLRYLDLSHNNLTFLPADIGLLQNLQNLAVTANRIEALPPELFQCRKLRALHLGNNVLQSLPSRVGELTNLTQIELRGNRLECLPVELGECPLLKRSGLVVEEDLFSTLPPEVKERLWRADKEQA
Assay: whole-cell patch clamp, primary astrocytes
Format: cell-based
Conditions: hypotonicity-induced SWELL1 currents; concentration not given

## CC(=O)CC(c1ccccc1)c1c(O)c2ccccc2oc1=O (stereo not shown) [Warfarin]
  whole-cell patch clamp, primary astrocytes: Warfarin, another anticoagulant of the same family, failed to inhibit hypotonicity‐induced SWELL1 currents
